Measurements reported in patent US20190022239A1, “NOVEL BIOMOLECULE CONJUGATES AND USES THEREFOR” (The University of Western Australia, priority 2016, published 2019).
Ends that are not written are not given here. FAM = fluorescein label (FAM, fluorescein-labelled)

What was measured:
tumour ECM = assay: Co-localisation of CSG with ECM markers in tumour tissue sections; format: binding, mouse and human
Experimental: Following incubation of whole tissue (for mouse insulinoma and human breast cancer) or 8 μm tissue cross section, (for mouse and human HCC) with FAM-CSG peptide, tissue cross sections were co-stained with 0.3 μg in 100 μL of anti-nidogen-1 (Rat anti-monoclonal mouse nidogen-1, Millipore) or anti-collagen-1 (Rabbit polyclonal collagen 1, Abeam) markers of ECM, for 1 hr at room temperature. Stained sections were washed 3× with 1×TBS buffer. Tissue sections were re-incubated with donkey anti-Rat or Rabbit IgG (H+L) secondary antibody Alexa 594 (0.4 μg in 100 μL for 30 min. at room temperature), followed by 3×wash with 1×TBS buffer. Co-localisation of CSG with these ECM markers highlights the specificity of CSG binding to tumour ECM (FIG. 2). Co-localisation was not observed in normal healthy tissue.

aorta containing plaque = assay: In vivo accumulation of FAM-CSG in aorta containing plaque; design: species or system mice; conditions: 1 hr after i.v. injection of 100 μl 1 mM FAM-CSG
human breast carcinoma = assay: Dipping of fresh human breast carcinoma samples in FAM-labelled peptide; format: binding
Experimental: Fresh, untreated samples of human breast carcimoma were dipped, 1 hr post surgery, in 20 μM FAM-CSG for 1 hr, followed by 3×1.5 min washes with 1× PBS.
This absence of binding of PAM-ARA was confirmed using anti-fluorescein antibody (data not shown).

occluded arteries = assay: Dipping assay of occluded arteries from a human patient; format: binding; conditions: occlusive peripheral vascular disease, after limb amputation
fibrotic tissue = assay: Binding to liver tissue sections of mice fed choline deficient diet; design: species or system mice (C57BL/6 strain)
Experimental: Mice (C57BL/6 strain) were fed a choline deficient diet, for 4 weeks (early liver fibrosis), 16 weeks (advanced fibrosis-cirrhosis) or 28 weeks (advanced HCC), after which liver tissue was examined. Acetone-fixed fresh frozen 8 μm issue cross sections were incubated with either 1 μM FAM-CSG or 5 μM FAM-ARA for 30 min in 1×PBS buffer at room temperature, FAM-CSG or FAM-ARA binding were confirmed using anti-FITC-HRP antibody staining.

[1] = system: plaques from the ApoE null mice; assay: Incubation of aorta with FAM-labelled peptide; format: binding; conditions: 20 nmol/ml
Experimental: To determine whether CSG also recognises fibroatheroma, healthy aorta from wild type C57BL/6 mice and aorta from ApoE null mice were incubated with 20 nmol/ml fluorescein-labelled FAM-CSG or ARA control.

[2] = system: hepatocellular carcinoma or breast carcinoma; assay: FAM-CSG accumulation in tumours after tail vein injection; format: in vivo, mice; conditions: 100 μL of 1 mM i.v., tissue harvested 1 hr after injection
Experimental: Fluorescein-labelled (FAM)-CSG (CSGRRSSKC; SEQ ID NO:1) (100 μL of 1 mM stock made in sterile 1× PBS) was injected into the tail vein of tumour-bearing mice (hepatocellular carcinoma or breast carcinoma, in C3H and BALB/c strains, respectively). Tissue was harvested without perfusion 1 hr after injection and peptide accumulation observed under UV illumination. […] Homing was specific to tumours, with only clearance organs (intestines, kidneys) showing limited accumulation of FAM-CSG.

CSGRRSSKC
co-localisation with ECM markers in tumours (tumour ECM; murine insulinoma and HCC, human breast carcinoma and HCC): co-localises with two known ECM markers, collagen-1 and nidogen-1
co-localisation with ECM markers in normal healthy tissue (tumour ECM; normal healthy tissue): not observed
co-localisation of in vivo accumulation with ECM marker (aorta containing plaque): co-localises with the ECM marker laminin
effect of preincubation with unlabeled peptide on FAM-CSG accumulation (human breast carcinoma; excess 1 mg unlabeled CSG): abolished the FAM-CSG specific penetration and accumulation in tumours
binding to human occluded arteries and plaques (occluded arteries): specific binding of CSG to the occluded arteries and specific accumulation of CSG in plaques
binding to fibrotic liver tissue (fibrotic tissue; 4, 16 or 28 weeks choline deficient diet, 1 μM FAM-CSG, 30 min): effectively binds fibrotic tissue at all stages

FAM-ARA: control fluorescein-labelled (FAM)-ARA peptide, ARALPSQRSR (SEQ ID NO:5) ({FAM}-ARALPSQRSR) [reference compound]
binding to human breast carcinoma tissue (human breast carcinoma; control peptide): showed no binding to the human breast carcinoma tissue

FAM-CSG: Fluorescein-labelled (FAM)-CSG (CSGRRSSKC; SEQ ID NO:1) ({FAM}-CSGRRSSKC; cysteine pairing not given here)
binding to human breast carcinoma tissue (human breast carcinoma; 20 μM for 1 hr): bound specifically to the tumour tissue and not to normal or marginal tissue
co-localisation with ECM marker nidogen-1 in fibrotic liver (fibrotic tissue; 1 μM, 30 min): co-localised with staining for the ECM marker nidogen-1
binding to normal liver (fibrotic tissue; mice fed normal chow diet): limited binding
binding to aortic plaques [1]: specifically bound to, and accumulated in, plaques
peptide accumulation in tumours under UV illumination [2]: accumulates in both tumour types
